Test results taken from patent publication US8344028B2, “Gamma-amino-butyric acid derivatives as GABAB receptor ligands” (XenoPort, Inc., priority 2009, dated 2013).
Structures can show the parent of a compound that is named as a salt.

Experiments:
[1] = target: T1, recombinant human GABABR1a2 (Homo sapiens, UniProt Q9UBS5); test: cAMP assay for determining GABAB receptor agonist activity; type: cell-based; conditions: cells expressing recombinant human GABABR1a2; read-out: cAMP EC50
T1 construct: expressed in transfected cells; host or cells: HEK cells
T1 sequence (Q9UBS5 15-961 limits assumed): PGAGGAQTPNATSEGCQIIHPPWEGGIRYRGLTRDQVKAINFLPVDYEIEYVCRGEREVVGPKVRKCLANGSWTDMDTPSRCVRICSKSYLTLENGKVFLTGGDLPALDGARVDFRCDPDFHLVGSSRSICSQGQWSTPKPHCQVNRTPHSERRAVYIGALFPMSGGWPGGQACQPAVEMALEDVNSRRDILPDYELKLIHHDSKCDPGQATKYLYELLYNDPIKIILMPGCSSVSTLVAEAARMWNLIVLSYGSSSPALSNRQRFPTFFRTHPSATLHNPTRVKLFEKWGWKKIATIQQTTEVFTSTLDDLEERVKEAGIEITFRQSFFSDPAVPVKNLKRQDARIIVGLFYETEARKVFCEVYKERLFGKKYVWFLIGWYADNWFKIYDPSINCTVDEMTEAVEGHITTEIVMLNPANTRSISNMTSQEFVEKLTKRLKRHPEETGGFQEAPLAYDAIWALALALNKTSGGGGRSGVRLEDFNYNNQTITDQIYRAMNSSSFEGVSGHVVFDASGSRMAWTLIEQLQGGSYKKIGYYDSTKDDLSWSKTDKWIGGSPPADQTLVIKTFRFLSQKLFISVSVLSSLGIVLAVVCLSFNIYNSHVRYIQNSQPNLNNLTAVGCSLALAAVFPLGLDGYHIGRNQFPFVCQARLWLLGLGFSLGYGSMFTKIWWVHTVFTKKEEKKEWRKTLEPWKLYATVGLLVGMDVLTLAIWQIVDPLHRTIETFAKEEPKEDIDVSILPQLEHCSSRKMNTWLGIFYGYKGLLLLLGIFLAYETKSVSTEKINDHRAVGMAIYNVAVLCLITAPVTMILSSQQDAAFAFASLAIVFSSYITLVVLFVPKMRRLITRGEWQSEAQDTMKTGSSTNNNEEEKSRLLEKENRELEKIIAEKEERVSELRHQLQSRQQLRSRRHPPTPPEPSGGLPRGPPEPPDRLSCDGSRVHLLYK
T1 sequence (O75899 42-941 partner): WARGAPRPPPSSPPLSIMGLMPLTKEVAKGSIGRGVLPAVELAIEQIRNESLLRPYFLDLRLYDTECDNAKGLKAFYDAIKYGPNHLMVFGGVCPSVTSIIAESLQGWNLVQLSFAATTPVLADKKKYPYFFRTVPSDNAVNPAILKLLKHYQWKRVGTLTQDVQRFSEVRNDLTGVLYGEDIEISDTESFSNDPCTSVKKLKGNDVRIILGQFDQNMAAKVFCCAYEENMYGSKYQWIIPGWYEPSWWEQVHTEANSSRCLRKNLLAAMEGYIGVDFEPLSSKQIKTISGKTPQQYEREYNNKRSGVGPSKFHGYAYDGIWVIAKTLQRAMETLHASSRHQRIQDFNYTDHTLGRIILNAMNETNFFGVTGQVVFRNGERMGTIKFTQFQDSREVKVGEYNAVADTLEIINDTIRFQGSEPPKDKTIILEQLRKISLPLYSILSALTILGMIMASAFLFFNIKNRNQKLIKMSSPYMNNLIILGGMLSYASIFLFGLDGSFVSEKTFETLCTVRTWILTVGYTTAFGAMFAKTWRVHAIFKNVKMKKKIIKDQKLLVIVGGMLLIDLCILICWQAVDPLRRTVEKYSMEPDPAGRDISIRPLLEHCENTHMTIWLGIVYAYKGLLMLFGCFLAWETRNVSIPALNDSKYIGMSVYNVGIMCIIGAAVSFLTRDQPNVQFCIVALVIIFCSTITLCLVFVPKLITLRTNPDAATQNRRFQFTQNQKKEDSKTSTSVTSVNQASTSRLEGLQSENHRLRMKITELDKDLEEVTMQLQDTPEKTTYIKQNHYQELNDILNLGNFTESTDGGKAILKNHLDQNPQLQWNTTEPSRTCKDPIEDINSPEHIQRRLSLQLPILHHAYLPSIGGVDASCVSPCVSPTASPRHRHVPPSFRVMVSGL
Description: The following procedure was used to determine the level of intracellular cAMP. Recombinant HEK cells expressing the GABAB R1a2 receptor were used in the experiments. cAMP levels were measured using a cAMP XS^+ HitHunter™ Chemiluminescence Assay Kit (90-0075-02, GE Healthcare Biosciences Corp.). Cells were seeded overnight at 5,000 cells per well, in black, clear bottom 96-well plates. The following morning, cells were washed twice with 100 μL PBS per well. Forskolin was weighed out and dissolved in DMSO to a final concentration 100 mM. One-hundred (100) μM forskolin solutions were prepared in PBS with and without test compound at 1-times final concentration. Thirty (30) μL of the test solutions were added to the wells and incubated for 1 h at room temperature. The cAMP concentration was determined according to the protocol described in the cAMP assay kit, maintaining the plate at room temperature and in the dark. Two hours after the final kit reagent was added, the plate bottom was covered with black tape, and the plate read using a 1450 MicroBeta Trilux microplate scintillation and luminescence counter (PerkinElmer, Waltham, Mass.). Each well was read for 6 seconds. The untransformed data was then analyzed.

GABAB receptor [2] = target: T2, GABAB receptor (Rattus norvegicus, UniProt Q9Z0U4); test: [3H]CGP54626 rat brain GABAB receptor binding assay; conditions: [3H]CGP54626 rat brain binding assay
T2 construct: from tissue; host or cells: rat cerebral cortex membranes
T2 sequence (Q9Z0U4 20-960): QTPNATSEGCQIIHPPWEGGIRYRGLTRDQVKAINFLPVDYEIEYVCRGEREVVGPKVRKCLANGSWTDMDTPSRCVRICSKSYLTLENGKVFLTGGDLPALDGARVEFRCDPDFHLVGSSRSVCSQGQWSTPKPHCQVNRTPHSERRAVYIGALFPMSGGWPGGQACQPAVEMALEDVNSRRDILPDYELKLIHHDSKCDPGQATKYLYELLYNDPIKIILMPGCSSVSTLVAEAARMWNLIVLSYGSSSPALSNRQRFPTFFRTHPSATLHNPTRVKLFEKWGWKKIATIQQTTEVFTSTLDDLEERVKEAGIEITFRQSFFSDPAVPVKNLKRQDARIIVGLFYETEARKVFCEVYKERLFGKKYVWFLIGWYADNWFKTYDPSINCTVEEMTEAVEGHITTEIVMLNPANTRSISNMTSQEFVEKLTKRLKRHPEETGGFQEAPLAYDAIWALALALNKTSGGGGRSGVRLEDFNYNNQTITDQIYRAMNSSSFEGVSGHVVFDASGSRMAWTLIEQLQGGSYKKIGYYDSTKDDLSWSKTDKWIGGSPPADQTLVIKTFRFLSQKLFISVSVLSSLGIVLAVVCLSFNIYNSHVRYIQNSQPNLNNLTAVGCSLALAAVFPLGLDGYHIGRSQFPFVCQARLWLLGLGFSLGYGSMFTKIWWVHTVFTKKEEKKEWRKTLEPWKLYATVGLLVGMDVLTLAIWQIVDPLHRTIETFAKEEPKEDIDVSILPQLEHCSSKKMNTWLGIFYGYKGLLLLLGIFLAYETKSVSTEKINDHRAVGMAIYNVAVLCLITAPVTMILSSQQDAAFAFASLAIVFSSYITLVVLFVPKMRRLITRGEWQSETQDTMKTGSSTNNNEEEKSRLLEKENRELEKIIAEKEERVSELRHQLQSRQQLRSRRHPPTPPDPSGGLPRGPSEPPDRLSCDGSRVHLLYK
T2 sequence (O88871 41-940 partner): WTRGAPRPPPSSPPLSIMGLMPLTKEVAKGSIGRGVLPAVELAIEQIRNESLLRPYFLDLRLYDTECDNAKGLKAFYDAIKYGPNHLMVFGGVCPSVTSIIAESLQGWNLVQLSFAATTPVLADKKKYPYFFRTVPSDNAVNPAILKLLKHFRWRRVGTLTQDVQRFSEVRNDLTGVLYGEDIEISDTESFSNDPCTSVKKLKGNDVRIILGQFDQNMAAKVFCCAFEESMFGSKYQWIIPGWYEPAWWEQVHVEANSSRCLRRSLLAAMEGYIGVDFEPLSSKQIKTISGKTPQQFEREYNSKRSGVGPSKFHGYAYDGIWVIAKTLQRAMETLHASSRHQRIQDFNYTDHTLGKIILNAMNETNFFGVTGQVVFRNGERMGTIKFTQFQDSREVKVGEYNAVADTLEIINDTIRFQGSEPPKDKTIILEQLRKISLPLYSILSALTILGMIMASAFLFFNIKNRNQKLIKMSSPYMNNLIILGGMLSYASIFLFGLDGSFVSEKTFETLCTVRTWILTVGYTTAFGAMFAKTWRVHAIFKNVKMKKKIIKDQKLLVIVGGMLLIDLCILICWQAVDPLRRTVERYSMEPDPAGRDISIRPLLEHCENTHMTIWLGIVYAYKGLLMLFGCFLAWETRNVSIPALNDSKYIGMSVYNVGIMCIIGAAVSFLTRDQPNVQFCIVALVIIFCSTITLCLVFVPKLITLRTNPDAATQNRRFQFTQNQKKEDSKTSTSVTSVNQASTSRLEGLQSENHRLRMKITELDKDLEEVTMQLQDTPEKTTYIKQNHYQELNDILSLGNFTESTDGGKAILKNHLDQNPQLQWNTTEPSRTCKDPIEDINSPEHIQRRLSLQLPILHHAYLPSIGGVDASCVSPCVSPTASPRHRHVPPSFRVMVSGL
Description: An assay using rat cerebral cortex membranes was used to determine the affinity of GABAB receptor ligands for the GABAB receptor.
An assay buffer of 50 mM Tris pH 7.4 was prepared with 100 μM of isoguvacine, to block GABAA interactions. The assay buffer with isoguvacine was used for dilution of membranes, compounds, and radiolabel.
Rat cerebral cortex membranes were diluted in assay buffer at 1 mg/mL and aliquoted into a 96-well plate at 900 μL/well. Buffer or test compound were added at 20-times final concentration in the buffer at 50 μL/well. Membranes and test compounds or buffer were incubated for 10 min. at room temperature. Radiolableled [S—(R*,R*)]-[3-[[1-(3,4-dichlorophenyl)ethyl]amino]-2-hydroxypropyl](cyclohexylmethyl) phosphinic acid (CGP54626) was then added at 50 μL/well in the buffer at 1-10 nM concentration in 50 μl. The mixture was incubated for 15 min. at room temperature. The assay mixture was filtered using Brandell filtration apparatus and GFB filters, washed twice with 3 mL of 4° C., 50 mM Tris pH 7.4, buffer without isoguvacine. The filters were then dried at room temperature and the dried filters punched out and placed in individual vials. Three (3) mL of scintillation fluid was added to each vial and the radiolabel counted on the scintillation counter. The inverse amount of radiolabel was indicative of binding of a test compound to the GABAB receptor.

[3] = target: T1, recombinant human GABABR1a2; test: Ca2+ assay for determining GABAB receptor agonist activity; type: cell-based; conditions: cells expressing recombinant human GABABR1a2
Description: The following procedure was used to determine the GABAB receptor agonist activity of a compound as reflected by activation of Ca^2+ signaling. HEK TREx cells expressing GABABR1a2 under tetracycline induction control, and Gqi chimeric protein (expressed constitutively), allowing GABABR coupling through the Ca^2+ signaling pathway were used in the experiments.
Cells were seeded in media containing tetracycline overnight at 100,000 cells/well, in black, clear-bottom, 96-well plates. The following morning, cells were washed twice with 100 μL HBSS buffer per well. Fluorescent Ca^2+ indicator dye was prepared using the materials and procedure described in the F362056 Fluo-4 NW Calcium Assay Kit (Invitrogen, Carlsbad, Calif.). Ten (10) mL of kit buffer and 100 μl of kit Probenecid were added to individual kit dye vials, and rolled back and forth several times to dissolve the dye. Cells were then loaded into the dye solution at 50 μL per well. The cells and dye were incubated for 30 min at 37° C., and then incubated for an additional 30 min at room temperature in the dark. Test compounds are dissolved in HBSS buffer at twice final concentration. Duplicate wells were used for each unique condition. Solution containing the test compound was added to the wells using a FLEXStation II (Molecular Devices, Sunnyvale, Calif.). Using the instrument in kinetic mode in which each well was read every 2 sec over a total collection time of 50 sec fluorescence was measured using an excitation wavelength 494 nm and a detection wavelength of 516 nm. A normalized fluorescence value for each well was calculated using the following procedure. The difference in fluorescence at 35 sec (usually representing maximal response) and at 15 sec (a time point prior to addition of test compounds) was calculated, divided by the fluorescence at 15 sec, and the result multiplied by 100. The final value represented the percent increase in fluorescence relative to the fluorescence at 15 sec. Data was analyzed using standard procedures.

GABAB receptor [4] = target: GABAB receptor (Homo sapiens, UniProt Q9UBS5); test: GABAB receptor agonist or partial agonist activity by binding, electrophysiology, cAMP and/or Ca2+ assay methods (Examples 83-86); type: cell-based
GABAB receptor (Homo sapiens, UniProt Q9UBS5), sequence (Q9UBS5 20-961): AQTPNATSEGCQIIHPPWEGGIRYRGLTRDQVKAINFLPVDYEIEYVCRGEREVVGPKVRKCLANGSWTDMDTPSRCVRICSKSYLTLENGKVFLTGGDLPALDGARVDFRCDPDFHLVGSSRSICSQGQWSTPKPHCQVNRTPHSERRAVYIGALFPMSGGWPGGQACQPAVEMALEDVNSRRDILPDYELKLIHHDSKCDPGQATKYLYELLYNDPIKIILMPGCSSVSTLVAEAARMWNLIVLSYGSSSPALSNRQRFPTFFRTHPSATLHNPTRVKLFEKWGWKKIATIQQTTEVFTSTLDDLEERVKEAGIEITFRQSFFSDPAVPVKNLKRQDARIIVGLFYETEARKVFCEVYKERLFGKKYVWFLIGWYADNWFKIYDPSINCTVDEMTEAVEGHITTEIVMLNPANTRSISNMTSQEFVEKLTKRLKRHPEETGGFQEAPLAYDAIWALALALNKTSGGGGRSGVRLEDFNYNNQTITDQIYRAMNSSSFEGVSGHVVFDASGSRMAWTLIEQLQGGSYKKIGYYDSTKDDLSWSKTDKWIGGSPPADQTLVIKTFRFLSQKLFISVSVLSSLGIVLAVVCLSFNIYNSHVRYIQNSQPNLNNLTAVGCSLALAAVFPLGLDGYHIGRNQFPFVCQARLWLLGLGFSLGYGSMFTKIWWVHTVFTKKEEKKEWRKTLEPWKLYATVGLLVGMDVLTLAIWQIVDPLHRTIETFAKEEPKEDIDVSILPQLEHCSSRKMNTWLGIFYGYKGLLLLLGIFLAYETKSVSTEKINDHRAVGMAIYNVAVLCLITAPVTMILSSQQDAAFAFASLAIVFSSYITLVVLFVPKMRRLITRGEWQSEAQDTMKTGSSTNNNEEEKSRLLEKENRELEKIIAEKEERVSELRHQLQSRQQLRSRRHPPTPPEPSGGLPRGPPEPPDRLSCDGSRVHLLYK
GABAB receptor (Homo sapiens, UniProt Q9UBS5), sequence (O75899 42-941 partner): as the sequence (O75899 42-941 partner) above
Procedure, shortened: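 Binding: rat cortex membranes in 50 mM Tris pH 7.4 with 100 μM isoguvacine were preincubated 10 min at RT with compound, then radiolabeled CGP54626 (1-10 nM) was added; filtered and scintillation-counted. cAMP: GABAB R1a2 HEK cells, 1 h RT with 100 μM forskolin, chemiluminescence.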

Compound | EC50 [1] | IC50 (GABAB receptor [2]) | EC50 [3] | GABAB receptor agonist or partial agonist activity (GABAB receptor [4])
NC[C@H](CC(=O)O)c1ccc(Cl)c(-c2cc(C(=O)O)co2)c1 [5-{5-[(1R)-2-amino-1-(carboxymethyl)ethyl]-2-chlorophenyl}furan-3-carboxylic acid hydrochloride] | < 100 nM | < 25 µM | < 700 nM | 
NC[C@H](CC(=O)O)c1ccc(Cl)c(-c2cc(C(=O)O)cs2)c1 [5-{5-[(1R)-2-amino-1-(carboxymethyl)ethyl]-2-chlorophenyl}thiophene-3-carboxylic acid hydrochloride] | < 100 nM | < 25 µM | < 700 nM | 
C[C@@H](Oc1cc([C@H](CN)CC(=O)O)ccc1Cl)c1ccncc1 [(3R)-3-[3-((1R)-1-(4-pyridyl)ethoxy)-4-chlorophenyl]-4-aminobutanoic acid hydrochloride] | < 100 nM | < 25 µM | < 700 nM | 
NC[C@H](CC(=O)O)c1ccc(Cl)c(OCc2cncs2)c1 [(3R)-4-amino-3-[4-chloro-3-(1,3-thiazol-5-ylmethoxy)phenyl]butanoic acid hydrochloride] | < 100 nM | < 25 µM | < 700 nM | 
NC[C@H](CC(=O)O)c1ccc(Cl)c(OCCc2ccncc2)c1 [(3R)-4-amino-3-[4-chloro-3-(2-(4-pyridyl)ethoxy)phenyl]butanoic acid hydrochloride] | < 100 nM | < 25 µM | < 700 nM | 
N#Cc1cc(-c2cc([C@H](CN)CC(=O)O)ccc2Cl)cs1 [(3R)-4-amino-3-[4-chloro-3-(5-cyano(3-thienyl))phenyl]butanoic acid hydrochloride] | < 100 nM | < 25 µM | < 700 nM | 
CN(C)C(=O)c1ccc(-c2cc([C@H](CN)CC(=O)O)ccc2Cl)s1 [(3R)-4-amino-3-{3-[5-(N,N-dimethylcarbamoyl)(2-thienyl)]-4-chlorophenyl}butanoic acid hydrochloride] | < 100 nM | < 25 µM | < 700 nM | 
Cc1cc(COc2cc([C@H](CN)CC(=O)O)ccc2Cl)ccn1 [(3R)-4-amino-3-{4-chloro-3-[(2-methyl(4-pyridyl))methoxy]phenyl}butanoic acid hydrochloride] | < 100 nM | < 25 µM | < 700 nM | 
NC[C@H](CC(=O)O)c1ccc(Cl)c(OCc2ccncc2Cl)c1 [(3R)-4-amino-3-{4-chloro-3-[(3-chloro(4-pyridyl))methoxy]phenyl}butanoic acid hydrochloride] | < 100 nM | < 25 µM | < 700 nM | 
Cl.NC[C@H](CC(=O)O)c1ccc(Cl)c(-c2ccccc2)c1 [Example 39, (3R)-4-Amino-3-(4-chloro-3-phenyl-phenyl)butanoic acid hydrochloride] |  |  |  | agonist or partial agonist activity
CN(C)c1cccc(-c2cc([C@H](CN)CC(=O)O)ccc2Cl)c1.Cl [Example 41, (3R)-4-Amino-3-{3-[3-(dimethylamino)phenyl]-4-chlorophenyl}butanoic acid hydrochloride] |  |  |  | agonist or partial agonist activity
Cl.NC[C@H](CC(=O)O)c1ccc(Cl)c(-c2cccc(CC(=O)O)c2)c1 [Example 43, (3R)-4-Amino-3-{3-[3-(carboxymethyl)phenyl]-4-chlorophenyl}butanoic acid hydrochloride] |  |  |  | agonist or partial agonist activity
Cl.NC[C@H](CC(=O)O)c1ccc(Cl)c(-c2ccc(C(=O)O)cc2Cl)c1 [Example 44, 4-{5-[(1R)-2-Amino-1-(carboxymethyl)ethyl]-2-chlorophenyl}-3-chlorobenzoic acid hydrochloride] |  |  |  | agonist or partial agonist activity
NC[C@H](CC(=O)O)c1ccc(Cl)c(-c2ccc([N+](=O)[O-])cc2)c1 [Example 47, (3R)-4-Amino-3-[4-chloro-3-(4-nitrophenyl)phenyl]butanoic acid hydrochloride] | < 100 nM | < 25 µM | < 700 nM | 
Cl.NC[C@H](CC(=O)O)c1ccc(Cl)c(-c2cncc(C(=O)O)c2)c1 [Example 48, 5-{5-[(1R)-2-Amino-1-(carboxymethyl)ethyl]-2-chlorophenyl}pyridine-3-carboxylic acid hydrochloride] |  |  |  | agonist or partial agonist activity
Cl.N#Cc1cc(-c2cc([C@H](CN)CC(=O)O)ccc2Cl)ccc1Cl [Example 49, (3R)-4-Amino-3-[4-chloro-3-(4-chloro-3-cyanophenyl)phenyl]butanoic acid hydrochloride] |  |  |  | agonist or partial agonist activity
Cl.NC[C@H](CC(=O)O)c1cccc(-c2cccc(C(=O)O)c2)c1 [Example 51, 3-{3-[(1R)-2-Amino-1-(carboxymethyl)ethyl]phenyl}benzoic acid hydrochloride] |  |  |  | agonist or partial agonist activity
Cl.N#Cc1cccc(-c2cc([C@H](CN)CCO)ccc2Cl)c1 [Example 53, 3-{5-[(1R)-1-(Aminomethyl)-3-hydroxypropyl]-2-chlorophenyl}benzenecarbonitrile hydrochloride] |  |  |  | agonist or partial agonist activity
CS(=O)(=O)c1cccc(-c2cc([C@H](CN)CC(=O)O)ccc2Cl)c1.Cl [Example 54, (3R)-4-Amino-3-{4-chloro-3-[3-(methylsulfonyl)phenyl]phenyl}butanoic acid hydrochloride] |  |  |  | agonist or partial agonist activity
Cl.NC[C@H](CC(=O)O)c1ccc(Cl)c(NCc2ccccn2)c1 [Example 58] |  |  |  | agonist or partial agonist activity
Cn1cncc1CNc1cc([C@H](CN)CC(=O)O)ccc1Cl [Example 59, (3R)-4-Amino-3-(4-chloro-3-{[(1-methylimidazol-5-yl)methyl]amino}phenyl)butanoic acid] |  |  |  | agonist or partial agonist activity
Cl.NC[C@H](CC(=O)O)c1ccc(Cl)c(NCc2ccc(C(=O)O)cc2)c1 [Example 63, 4-[({5-[(1R)-2-Amino-1-(carboxymethyl)ethyl]-2-chlorophenyl}amino)methyl]benzoic acid hydrochloride] |  |  |  | agonist or partial agonist activity
Cl.NC[C@H](CC(=O)O)c1ccc(Cl)c(NCc2ccoc2)c1 [Example 64, (3R)-4-Amino-3-{4-chloro-3-[(3-furylmethyl)amino]phenyl}butanoic acid hydrochloride] |  |  |  | agonist or partial agonist activity
(3R)-4-amino-3-{4-chloro-3-[(2-pyridyl)carbonylamino]phenyl)carbonylamino]phenyl}butanoic acid |  |  |  | agonist or partial agonist activity
